US20160256560A1, “Environmentally Sensitive Compositions” (priority 2010, published 2016)
Several values for one entry are separate records, joined by “and”; a condition that tells them apart may be missing. Identical values can stand only once. Like-named read-outs stand apart in the source and are kept apart here. *1 amine or outer side, *2 acyl side, *3 side chain or, on linkers, in order; H or OH if unused. Where a SMILES comes first, the peptide text is derived from it. Bridges are numbered along the chain shown (N, C = ends). Where no end group is shown, it is not given here. [ ]: non-standard residue; d: D form. ξ: configuration not given here. X3 = CN(C)c1ccc2c(c1)Oc1cc(N(C)C)ccc1C2=C1C=CC(=NC(=S)NC[C@](C)(O)C[C@H](N[*:1])C(=O)[*:2])C=C1C(=O)O; X2 = CCCCCCCC/C=C\CCCCCCCC(=O)OC[C@](C)(O)C[C@H](N[*:1])C(=O)[*:2]; Trp(2-yl) = O=C([C@H](Cc1c([*:3])[nH]c2ccccc12)N[*:1])[*:2]; ξTrp(2-yl) = O=C(C(Cc1c([*:3])[nH]c2ccccc12)N[*:1])[*:2]; X1 = CC(O)(CO)CC(N[*:1])C(=O)[*:2]; cisHyp = O=C(O)[C@@H]1C[C@H](O)CN1; ξAsp(3ξ-OH) = NC(C(=O)O)C(O)C(=O)O; Hyp = O=C(O)[CH]1C[CH](O)CN1

Tests used:
HeLa cells [1] = assay type: cell-based, human; conditions: for antiproliferative effect at either pH: pH 6
[2] = pH 5.5
actin filaments = conditions: read-out: Kd, binding to actin filaments; cited from earlier work
[3] = not given; remark: listed apart in the source
tumor = test: Animal studies of variants: tumor/organ fluorescence 4 and 24 h post-injection; conditions: after 24 hours
[4] = Stopped-flow fluorescence and CD kinetics of insertion/folding and exit/unfolding; assay type: physicochemical
tumors = tested on: tumors; design: species or system nude mice; conditions: mouse, in vivo
HeLa cells [5] = tested on: HeLa cells
HeLa-GFP cells = test: Cellular uptake of nanogold (silver enhancement, image analysis); assay type: cell-based, human; conditions: 1 h
HeLa tumors = conditions: mouse, in vivo
[6] = tested on: luciferase pre-mRNA aberrant splice sites in HeLa cells; assay type: cell-based, human

## CC[C@H](C)[C@H](NC(=O)[C@@H]1CCCN1C(=O)[C@H](CC(N)=O)NC(=O)[C@H](CCC(N)=O)NC(=O)[C@H](CCC(=O)O)NC(=O)[C@H](C)NC(=O)[C@H](C)N)C(=O)N[C@@H](Cc1ccc(O)cc1)C(=O)N[C@@H](Cc1c[nH]c2ccccc12)C(=O)N[C@@H](C)C(=O)N[C@@H](CCCNC(=N)N)C(=O)N[C@@H](Cc1ccc(O)cc1)C(=O)N[C@@H](C)C(=O)N[C@@H](CCC(=O)O)C(=O)N[C@@H](Cc1c[nH]c2ccccc12)C(=O)N[C@@H](CC(C)C)C(=O)N[C@@H](Cc1ccccc1)C(=O)N[C@H](C(=O)N[C@H](C(=O)N1CCC[C@H]1C(=O)N[C@@H](CC(C)C)C(=O)N[C@@H](CC(C)C)C(=O)N[C@@H](CC(C)C)C(=O)N[C@@H](CC(C)C)C(=O)N[C@@H](CC(=O)O)C(=O)N[C@@H](CC(C)C)C(=O)N[C@@H](C)C(=O)N[C@@H](CC(C)C)C(=O)N[C@@H](CC(C)C)C(=O)N[C@H](C(=O)N[C@@H](CC(=O)O)C(=O)N[C@@H](C)C(=O)N[C@@H](CC(=O)O)C(=O)N[C@@H](CCC(=O)O)C(=O)NCC(=O)N[C@H](C(=O)N[C@@H](CS)C(=O)NCC(=O)O)[C@@H](C)O)C(C)C)[C@@H](C)O)[C@@H](C)O [D14E]
other
  pH 8 Solubility: Y

## CC[C@H](C)[C@H](NC(=O)[C@@H]1CCCN1C(=O)[C@H](CC(N)=O)NC(=O)[C@H](CCC(N)=O)NC(=O)[C@H](CCC(=O)O)NC(=O)[C@H](C)NC(=O)[C@H](C)N)C(=O)N[C@@H](Cc1ccc(O)cc1)C(=O)N[C@@H](Cc1c[nH]c2ccccc12)C(=O)N[C@@H](C)C(=O)N[C@@H](CCCNC(=N)N)C(=O)N[C@@H](Cc1ccc(O)cc1)C(=O)N[C@@H](C)C(=O)N[C@@H](CC(=O)O)C(=O)N[C@@H](Cc1c[nH]c2ccccc12)C(=O)N[C@@H](CC(C)C)C(=O)N[C@@H](Cc1ccccc1)C(=O)N[C@H](C(=O)N[C@H](C(=O)N1CCC[C@H]1C(=O)N[C@@H](CC(C)C)C(=O)N[C@@H](CC(C)C)C(=O)N[C@@H](CC(C)C)C(=O)N[C@@H](CC(C)C)C(=O)N[C@@H](C)C(=O)N[C@@H](CC(C)C)C(=O)N[C@@H](C)C(=O)N[C@@H](CC(C)C)C(=O)N[C@@H](CC(C)C)C(=O)N[C@H](C(=O)N[C@@H](CC(=O)O)C(=O)N[C@@H](C)C(=O)N[C@@H](CC(=O)O)C(=O)N[C@@H](CCC(=O)O)C(=O)NCC(=O)N[C@H](C(=O)N[C@@H](CS)C(=O)NCC(=O)O)[C@@H](C)O)C(C)C)[C@@H](C)O)[C@@H](C)O [D25A]
other
  pH 8 Solubility: N

## CC1NC(=O)C2CC(O)CN2C(=O)C2CSc3[nH]c4ccccc4c3CC(NC1=O)C(=O)NC(CC(C)(O)CO)C(=O)NC(C(C)C)C(=O)NC(C(O)C(=O)O)C(=O)N2 (stereo not drawn) [phallacidin, reference compound] (cyclo([ξAsp(3ξ-OH)]C[Hyp]A[ξTrp(2-yl)][X1]V); thioether 2-5; configuration not given here)
HeLa cells [1]
  antiproliferative effect at either pH: does not demonstrate an antiproliferative effect at either pH
[2]
  Log P (octanol-water partition coefficient): −1.6

## C[C@@H]1NC(=O)[C@H](C[C@@](C)(O)CNC(=S)N=C2C=CC(=C3c4ccc(N(C)C)cc4Oc4cc(N(C)C)ccc43)C(C(=O)O)=C2)NC(=O)[C@@H]2Cc3c([nH]c4ccccc34)SC[C@H](NC(=O)[C@@H]([C@H](C)O)NC1=O)C(=O)N1C[C@@H](O)C[C@H]1C(=O)N[C@@H](C)C(=O)N2 [phalloidin-TRITC] (cyclo(A[dT]C[cisHyp]A[Trp(2-yl)][X3]); thioether 3-6)
Actin filaments
  Kd: 40 nM

## CCCCCCCC/C=C\CCCCCCCC(=O)OC[C@](C)(O)C[C@@H]1NC(=O)[C@@H]2Cc3c([nH]c4ccccc34)SC[C@H](NC(=O)[C@@H]([C@H](C)O)NC(=O)[C@H](C)NC1=O)C(=O)N1C[C@@H](O)C[C@H]1C(=O)N[C@@H](C)C(=O)N2 [phalloidin-oleate] (cyclo(A[dT]C[cisHyp]A[Trp(2-yl)][X2]); thioether 3-6)
HeLa cells [1]; 1 µM
  inhibition of Hela cell proliferation rate: 60%
HeLa cells [1]; 2 µM
  inhibition of Hela cell proliferation rate: 70%
HeLa cells [1]; 4 µM
  inhibition of Hela cell proliferation rate: 95%
[2]
  Log P: +1.7

## AAEQNPIYWARYADWLFTTALLLLDLALLVDADEGT [P20A]
[3]; pH 8
  Findings: solubility / aggregation: Aggregates

## AAEQNPIYWARYADWLFTTPLLLLDLALLVDADEGTCG [WT-Cys1]
physchem
  pKa: 6.14

## AAEQNPIYWARYAEWLFTTPLLLLELALLVDADEGTCG [D14/25E]
other
  pH 8 Solubility: N

## ACDDQNPWRAYLDLLFPTDTLLLDLLW [Var3-3D]
tumor
  retention in kidney: also retained in the kidney after 24 hours

## ACEEQNPWARYLEWLFPTETLLLEL [Cys-Short-3E]
tumor
  retention in kidney: also retained in the kidney after 24 hours

## ACEQNPIYWARYAKWLFTTPLLLLKLALLVDADEGTG [K-pHLIP]
other
  pH 8 Solubility: Y/N

## ACEQNPIYWARYANWLFTTPLLLLNLALLVDADEGTG [N-pHLIP]
other
  pH 8 Solubility: Y

## AEDQNDPI YWARYADWLFTTPLLLLELALLV EC--G-T-COOH [pHLIP-2E]
[4]; pH 8
  A, frequency factor, first transition: 1.2 × 10^5
  Ea, first transition: 6.0 kcal/mol
  k1, rate constant: 0.20/5.00 s^−1 and 0.28/3.57 s^−1 and 0.34/2.94 s^−1 and 0.39/2.56 s^−1
  t1, characteristic time: 0.20/5.00 s and 0.28/3.57 s and 0.34/2.94 s and 0.39/2.56 s
[3]
  λmax, maximum position of fluorescence spectrum: 339.2 nm
[3]; pH 8
  λmax, maximum position of fluorescence spectrum: 351.2 nm and 341.3 nm

## AEDQNPYWARYADWLFTTPLLLLDLALLVDCG [Fast1-Cys]
physchem
  pKa: 6.1

## AEQNPI YFARYADELFTTPLLLLDLALLW DADET-COOH [pHLIP-W3]
[4]; pH 3.6
  characteristic time, first component, exit: 0.06 s (14.9 s^−1)
  characteristic time, second component, exit: 0.35 s (2.88 s^−1)
  rate constant, first component, exit: 0.06 s (14.9 s^−1)
  rate constant, second component, exit: 0.35 s (2.88 s^−1)

## AEQNPIYWARYADWLFTTPL [Short-Cys]
physchem
  pKa: 4.4

## Ac-AAEQNPIYWARYADWLFTTPLLLLDLALLVDADEGTKCG [pHLIP-KC]
physchem
  pKa: 6.16
other
  pH 8 Solubility: Y

## DDDEDNPIYWARYADWLFTTPLLLLHGALLVDADECT [2H3 or D3a]
other
  pH 8 Solubility: Y

## DDDEDNPIYWARYAHWLFTTPLLLLDGALLVDADECT [D3b]
other
  pH 8 Solubility: Y

## DDDEDNPIYWARYAHWLFTTPLLLLHGALLVDADECT [2H2 or D2]
other
  pH 8 Solubility: Y

## DDDEDNPIYWARYAHWLFTTPLLLLHGALLVNADECT [D1]
other
  pH 8 Solubility: Y

## DDDEDNPIYWARYAHWLFTTPLLLLHGALLVNANECT [D0 or H2N2]
other
  pH 8 Solubility: Y

## DDDEDNPIYWARYAHWLFTTPLLLLHGALLVNANECT [D0]
other
  pH 8 Solubility: Y

## GGEQNPIYWAQDYAWLFTTPLLLLDLALLVDADEGTCG [R11Q; D14UpUp]
other
  pH 8 Solubility: Y

## GGEQNPIYWAQYDAWLFTTPLLLLDLALLVDADEGTCG [R11Q; D14Up]
other
  pH 8 Solubility: Y

## GGEQNPIYWARYADWLFTTPLLLDLLALLVDADEGTCG [D25Up]
other
  pH 8 Solubility: N

## GGEQNPIYWARYADWLFTTPLLLLDLALLVDADEGT [WT-1]
physchem
  pKa: 6

## GGEQNPIYWARYADWLFTTPLLLLDLALLVDADEGTCG [WT-Cys3]
other
  pH 8 Solubility: Y

## GGEQNPIYWARYADWLFTTPLLLLDLALLVNANQGT [NNQ]
other
  pH 8 Solubility: Y

## GGEQNPIYWARYADWLFTTPLLLLLDALLVDADEGTCG [D25Down]
other
  pH 8 Solubility: N

## GGEQNPIYWARYDAWLFTTPLLLLDLALLVDADEGTCG [D14Up]
other
  pH 8 Solubility: Y

## Gadolinium-tetraazacyclododecanetetraacetic acid [Gd-DOTA control]
tumors
  % T1 Change (3 hrs): 5.27% and −3.05%
  % T1 Change (24 hrs): 10.7% and 5.02%
  T1 3 hrs: 920.4 ms and 879.2 ms
  T1 24 hrs: 967.6 ms and 952.4 ms

## Phallacidin-(CH2)n—SH, n=4 [phallC4SH]
[2]
  Log P (octanol-water partition coefficient): −0.74

## Phallacidin-(CH2)n—SH, n=6 [phallC6SH]
HeLa cells [1]
  antiproliferative effect at either pH: does not demonstrate an antiproliferative effect at either pH

## Phallacidin-(CH2)n—SH, n=10 [phallC10SH]
[2]
  Log P (octanol-water partition coefficient): +1.28

## aminophalloidin [reference compound]
HeLa cells [5]
  inhibitory effect on HeLa proliferation: no inhibitory effect
M4A4 cells
  inhibitory effect on M4A4 proliferation: no inhibitory effect

## gold-pHLIP: 1.4 nm monomaleimido Nanogold conjugated to N-terminal Cys of pHLIP (ACEQNPIYWARYADWLFTTPLLLLDLALLVDADET) (AC(1.4 nm monomaleimido Nanogold)EQNPIYWARYADWLFTTPLLLLDLALLVDADET)
HeLa-GFP cells; 2 μM
  cellular uptake at pH6.5 versus pH7.4 (times higher): 1.6
HeLa-GFP cells; pH6.5, 2 μM
  uptake of gold versus unmodified gold nanoparticles (times): 6.4
HeLa-GFP cells; pH7.4, 2 μM
  uptake of gold versus unmodified gold nanoparticles (times): 3
HeLa tumors
  tumor/muscle ratio: 5.6
HeLa tumors; iv
  gold in tumor versus gold nanoparticles alone (times): 6

## pHLIP-S—S-CCTCTTACCTCAGTTACA (all peptide nucleic acid (PNA); pHLIP peptide disulfide-linked to the PNA, end not given here) [pHLIP-PNA construct]
[6]
  luciferase activity localized to tumor sites: significantly higher luciferase activity
  uptake by cells in vivo compared to other constructs: Significantly greater amounts

## pHLIP-S—S—(CH2)6-phallacidin [pHLIP-C6phall]
HeLa cells [1]
  cell death: about 60%
HeLa cells [1]; pH 7.4
  antiproliferative effect at neutral pH: no effect is observed

## phallacidin-(CH2)10NH2 [phallC10]
[2]
  Log P (octanol-water partition coefficient): +1.28
